Legend:
[1] = Assay 1. Stability in Simulated Gastric Fluid (SGF); type: in vitro ADME; details: 1 μM, 37° C., SGF pH 1.6 with pepsin
Protocol: Assay 1. Stability of acylated active agents in Simulated Gastric Fluid (SGF). This assay was used to assess the stability of an acylated active agent in a stomach.
Medium was prepared by dissolving 2 g of sodium chloride in 0.6 L of ultrapure water (MilliQ®, Millipore Sigma, Darmstadt, Germany). The pH was adjusted to 1.6 with 1N hydrochloric acid, and the volume was then adjusted to 1 L with purified water.
60 mg FaSSIF powder (Biorelevant™, London, UK) were dissolved in 500 mL buffer (above). Pepsin was added (0.1 mg/mL) (Millipore Sigma, Darmstadt, Germany), and the solution was stirred. The resulting SGF media were used fresh for each experiment.
Test compounds were dissolved in DMSO stock to 1 mM. An aliquot of the DMSO stock solution was removed and diluted in the SGF Media in 15 mL falcon tubes to generate a compound concentration of 1 μM. A 1 mL aliquot was immediately removed and diluted once with 1 volume of acetonitrile for T0 timepoint. The mixture was sealed and mixed at 37° C. in an incubator. Aliquots (1 mL) were removed at regular intervals and immediately quenched by the addition of 1 volume of acetonitrile. The resulting samples were analyzed by LC/MS to determine degradation rates in SGF.

[2] = Assay 2. Stability in Simulated Intestinal Fluid (SIF); type: in vitro ADME; details: 1 μM, 37° C., SIF pH 6.7 with pancreatin
Protocol: Assay 2. Stability of acylated active agents in Simulated Intestinal Fluid (SIF). This assay was used to assess the stability of an acylated active agent in a small intestine.
Phosphate buffer was prepared by dissolving 0.42 g of sodium hydroxide pellets and 3.95 g of monobasic sodium phosphate monohydrate and 6.19 g of sodium chloride in ultrapure water (MilliQ®, Millipore Sigma, Darmstadt, Germany). The pH was adjusted to 6.7 using aq. HCl and aq. NaOH, as necessary, and the solution was diluted with ultrapure water to produce 1 L of the pH 6.7 buffer.
112 mg FaSSIF powder (Biorelevant™, London, UK) was dissolved in 50 mL of the pH 6.7 buffer. 2 to 3 mL of the resulting solution were then added to 500 mg pancreatin (Millipore Sigma, Darmstadt, Germany). The resulting mixture was agitated by finger tapping the vessel containing the mixture until milky suspension formed. At this time, the remainder of the 50 mL FaSSiF/pH 6.7 buffer solution was added. The resulting suspension was flipped upside down 10 times to produce SIF, which was used fresh.
Test compounds were dissolved in DMSO stock to 1 mM. An aliquot of the DMSO stock solution was removed and diluted in the SIF media in 15 mL falcon tubes to produce a mixture with a tested compound concentration of 1 μM. A 1 mL aliquot was immediately removed and diluted once with 1 volume of acetonitrile for T0 timepoint. The mixture was sealed and agitated at 37° C. in an incubator. Aliquots (1 mL) were removed at regular intervals and immediately quenched by the addition of 1 volume of acetonitrile. The resulting samples were analyzed by LC/MS to determine degradation rates.

Structure (SMILES)	Assay 1 (SGF) (% Remaining @ 1 hours) [1]	Assay 2 (SIF) (% @ Remaining 4 hours) [2]
CCC(=O)OC[C@H]1OC(O)[C@H](OC(=O)CC)[C@@H](OC(=O)CC)[C@@H]1OC(=O)CC (stereo partly drawn) [Compound 142, [(2R,3R,4S,5R)-6-hydroxy-3,4,5-tris(propanoyloxy)oxan-2-yl]methyl Propanoate]	C (C: >75% of the tested compound remaining)	A (A: <25% of the tested compound remaining)
O=C(CCc1c[nH]c2ccccc12)O[C@@H]1[C@H](OC(=O)CCc2c[nH]c3ccccc23)C=C(C(=O)O)C[C@H]1OC(=O)CCc1c[nH]c2ccccc12 [Compound 253, (3R,4S,5R)-3,4,5-tris({[3-(1H-indol-3-yl)propanoyl]oxy})cyclohex-1-ene-1-carboxylic Acid]	B (B: 25-75% of the tested compound remaining)	B (B: 25-75% of the tested compound remaining)
CCCC(=O)O[C@H]1[C@@H](Oc2ccc(N)cc2C(=O)O)OC[C@@H](OC(=O)CCC)[C@H]1OC(=O)CCC [Compound 41, 5-amino-2-(((2R,3R,4R,5R)-3,4,5-tris(butyryloxy)tetrahydro-2H-pyran-2-yl)oxy)benzoic Acid]	C (C: >75% of the tested compound remaining)	C (C: >75% of the tested compound remaining)
C=C1CC[C@H](OC(=O)[C@H](OC(=O)CCC)[C@@H](OC(=O)CCC)[C@H](OC(=O)CCC)[C@@H](COC(=O)CCC)OC(=O)CCC)C/C1=C/C=C1\CCC[C@]2(C)[C@@H]([C@H](C)CCCC(C)C)CC[C@@H]12 [Compound 67, [(1 S,3Z)-3-[(2E)-2-[(1R,3aS,7aR)-1-[(1R)-1,5-dimethylhexyl]-7a-methyl-2,3,3a,5,6,7-hexahydro-1H-inden-4-ylidene]ethylidene]-4-methylene-cyclohexyl] (2R,3S,4R,5R)-2,3,4,5,6-penta(butanoyloxy)hexanoate]	B (B: 25-75% of the tested compound remaining)	A (A: <25% of the tested compound remaining)
O=C(CCc1c[nH]c2ccccc12)O[C@@H]1[C@H](OC(=O)CCc2c[nH]c3ccccc23)COC(O)[C@@H]1OC(=O)CCc1c[nH]c2ccccc12 (stereo partly drawn) [Compound 167, (3R,4R,5R)-6-hydroxy-4,5-bis({[3-(1H-indol-3-yl)propanoyl]oxy})oxan-3-yl 3-(1H-indol-3-yl)propanoate]	C (C: >75% of the tested compound remaining)	A (A: <25% of the tested compound remaining)
CCC(=O)O[C@H]1[C@H](OC(=O)CC)[C@H](OC(=O)Cc2c[nH]c3ccccc23)O[C@@H](C)[C@H]1OC(=O)CC [Compound 150, (2S,3S,4R,5R,6S)-2-{[2-(1H-indol-3-yl)acetyl]oxy}-6-methyl-4,5-bis(propanoyloxy)oxan-3-yl Propanoate]	C (C: >75% of the tested compound remaining)	A (A: <25% of the tested compound remaining)
CC(=O)Oc1ccc([C@@H]2CC(=O)c3c(OC(C)=O)cc(OC(C)=O)cc3O2)cc1 [Compound 21, (S)-2-(4-acetoxyphenyl)-4-oxochromane-5,7-diyl Diacetate]	C (C: >75% of the tested compound remaining)	A (A: <25% of the tested compound remaining)
CCCC(=O)O[C@@H]1[C@@H](OC(=O)CCC)[C@@H](OC(=O)CCc2c[nH]c3ccccc23)OC[C@@H]1OC(=O)CCC [Compound 114, (2R,3R,4S,5S)-4,5-bis(butanoyloxy)-2-{[3-(1H-indol-3-yl)propanoyl]oxy}oxan-3-yl Butanoate]	B (B: 25-75% of the tested compound remaining)	A (A: <25% of the tested compound remaining)
CCC(=O)OC1OC[C@@H](OC(=O)CC)[C@H](OC(=O)CC)[C@H]1OC(=O)CC (stereo partly drawn) [Compound 162, (3R,4S,5R)-3,4,5-tris(propanoyloxy)oxan-2-yl Propanoate]	C (C: >75% of the tested compound remaining)	A (A: <25% of the tested compound remaining)

From US10953027B2, “Active agents and methods of their use for the treatment of metabolic disorders and nonalcoholic fatty liver disease” (Flagship Pioneering Innovations V, Inc., priority 2018, dated 2021)
